Source: EP4725956A1, “MODIFIED POLYPEPTIDE AND USE THEREOF IN FIELD OF ANALGESIA” (Nanjing Anji Biotechnology Co., Ltd., priority 2023, dated 2024)
Positions of bridges follow the written chain, without caps; N, C: chain ends. Non-standard residues stand in square brackets, D forms with d. Residues, ends and D or L forms follow the SMILES beside them. Hyp = O=C(O)[C@@H]1C[C@@H](O)CN1; Nle = CCCC[C@H](N)C(=O)O; Orn = NCCC[C@H](N)C(=O)O

Experiments:
[1] = test system: rat paclitaxel-induced chronic chemotherapy pain model; assay: Rat paclitaxel chemotherapy pain model, same dose (Example 5); format: in vivo; conditions: for analgesic activity compared with the model group (mechanical pain threshold): four rounds of treatment
Experimental: Male SPF (Specific Pathogen Free) SD rats weighing 180-200 g (Shanghai Institute of Planned Parenthood Research, Experimental Animal Department) were used. On the day of model induction, rats were weighed, and baseline mechanical pain thresholds were measured. Animals with large differences in body weight or pain threshold were excluded, and the remaining rats were subjected to the experimental protocol. Paclitaxel powder was dissolved in olive oil to 1 mg/mL. Each rat received an intraperitoneal injection of 2 mg/kg per dose. Four injections were administered on days 1, 3, 5, and 7. Rats in the negative control or vehicle control group received injections of the solvent used to dissolve paclitaxel. […] The blank group in Table 4 represents rats without pain modeling, and the model group represents rats with pain modeling but no drug treatment. On days 1, 3, 5, and 12, drugs were administered at fixed times. On days 1, 3, and 5, mechanical pain thresholds of the right hind paw at the corresponding time were measured at 1 h, 2.5 h, 4 h, and 5.5 h after dosing using a blunt probe. On day 12, mechanical pain thresholds were measured at 4 h and 7 h after dosing. […] AJ003-36 and AJ003-40 were thus identified as candidate molecules for further study. Paclitaxel is a widely used small-molecule chemotherapy drug that, while effective against tumors, can induce neuropathic pain in many cancer patients due to neurotoxicity. The chronic chemotherapy pain model induced in male SD rats via multiple low-dose intraperitoneal injections of paclitaxel simulates clinical chemotherapy-induced neuropathic pain. Using this model, the analgesic effects of five modified peptides, the parent peptide AJ003, and the positive control pregabalin were evaluated. […] Table 4 Dosing Scheme for Screening Analgesic Activity of Selected Modified Peptides at the Same Dose in the Paclitaxel Chemotherapy Pain Model

[2] = test system: rat paclitaxel-induced chronic chemotherapy pain model; assay: Rat paclitaxel chemotherapy pain model, different doses (Example 6); format: in vivo; conditions: for analgesic activity compared with the model group (mechanical pain threshold): 1 mg/kg s.c., five rounds of treatment
Experimental: Male SPF (Specific Pathogen Free) SD rats weighing 180-200 g (Shanghai Institute of Planned Parenthood Research, Experimental Animal Department) were purchased and allowed to acclimate for approximately one week. On the day of model induction, rats were weighed, and baseline mechanical pain thresholds were measured. Animals with large differences in body weight or pain threshold were excluded, and the remaining rats were subjected to the experimental protocol. Paclitaxel powder was dissolved in olive oil to 1 mg/mL. Each rat received an intraperitoneal injection of 2 mg/kg per dose. Four injections were administered on days 1, 3, 5, and 7. Rats in the negative control or vehicle control group received injections of the solvent used to dissolve paclitaxel. […] Starting from day 15 after model induction, drugs were administered daily for consecutive days. On days 1, 4, 7, 12, and 14 of treatment, mechanical pain thresholds of the right hind paw at the corresponding time were measured at 2 h, 4 h, 6 h, and 8 h after dosing using a blunt probe. […]. […] Table 5 Dosing Scheme for Screening Analgesic Activity of Selected Modified Peptides at Different Doses in the Paclitaxel Chemotherapy Pain Model

[3] = test system: mouse diabetic neuropathic pain model; assay: Mouse diabetic neuropathic pain model (Example 10); format: in vivo; conditions: 2 mg/kg s.c. (AJ003; AJ003-36 medium dose)
Experimental: Except for the control group, the remaining male C57 mice (Hangzhou Ziyuan Experimental Animal Technology Co., Ltd.) were continuously fed a high-sugar, high-fat diet for approximately ten weeks. For the model group, mice were fasted overnight, and streptozotocin (STZ) (Sann Chemical Technology (Shanghai) Co., Ltd.) was dissolved in sodium citrate-citric acid buffer solution and intraperitoneally injected at a dose of 70 mg/kg. About two weeks after STZ injection, the mechanical pain threshold of mice was measured. Mice were placed on a perforated wire mesh for adaptation, and the plantar surface of the right hind paw was vertically stimulated with a blunt needle. Pain threshold data were collected using a biosignal acquisition system. Each mouse was measured three times, and the average value was calculated. Mice were then randomly assigned to groups based on their pain thresholds for drug administration.
Day 1 of dosing: Drug administration was performed according to Table 9. Mechanical pain thresholds of the plantar surface were measured at 0 h, 2 h, 4 h, 6 h, and 8 h after administration.

α7 nAChR = α7 nAChR (Homo sapiens, UniProt P36544); assay: BLI (biolayer interferometry) affinity of peptides to α7 nAChR; format: binding; set-up: inferred from the 'similar' procedure on NTA sensors; conditions: NTA sensor, α7 nAChR 20 µg/mL, peptide 1.372-1000 nM in PBS
In short: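 Target protein immobilised on NTA biosensors from PBS at 5 µg/mL (α9) or 20 µg/mL (α7). Peptides run in PBS as threefold series from 1000 nM to 1.372 nM with a PBS blank, 5-minute association and 5-minute dissociation; KD from fitted ka and kd.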

SMILES	analgesic activity compared with the model group (mechanical pain threshold) ([1]; 1 mg/kg s.c., beyond 4 h after dosing)	analgesic activity compared with the model group (mechanical pain threshold) ([1]; 1 mg/kg s.c., within 4 h after dosing)	analgesic activity compared with the model group (mechanical pain threshold) ([2]; beyond 4 h after dosing)	analgesic activity compared with the model group (mechanical pain threshold) ([2]; within 4 h after dosing)	analgesic activity compared with the model group (mechanical pain threshold) ([3]; Day 1 of dosing, 2 h and 4 h)	analgesic activity compared with the model group (mechanical pain threshold) ([3]; Day 1 of dosing, 6 h and 8 h)	analgesic activity compared with the model group (mechanical pain threshold) ([3]; Day 4 of dosing, 2 h and 4 h)	analgesic activity compared with the model group (mechanical pain threshold) ([3]; Day 4 of dosing, 6 h and 8 h)	analgesic activity compared with the model group (mechanical pain threshold) ([3]; Day 8 of dosing, 2 h and 4 h)	analgesic activity compared with the model group (mechanical pain threshold) ([3]; Day 8 of dosing, 6 h and 8 h)	analgesic activity compared with the model group (mechanical pain threshold) ([3]; Day 14 of dosing, 2 h and 4 h)	analgesic activity compared with the model group (mechanical pain threshold) ([3]; Day 14 of dosing, 6 h and 8 h)	Kd (α7 nAChR) [nM]	ranking among the five candidate modified peptides ([1]; 1 mg/kg s.c.)	analgesic activity (mechanical pain threshold) ([1]; 1 mg/kg s.c., day 12, 7 h after dosing)	analgesic efficacy compared with the positive control pregabalin ([1]; peptide 1 mg/kg s.c. vs pregabalin 30 mg/kg oral gavage, overall)	analgesic activity compared with the positive control pregabalin ([2]; high dose 1.5 mg/kg s.c. vs pregabalin 30 mg/kg oral gavage)	analgesic effect compared with the model group (mechanical pain threshold) ([2]; high dose 1.5 mg/kg s.c., 8 h after dosing)	analgesic activity compared with the parent peptide AJ003 ([2]; low dose 0.5 mg/kg s.c. vs AJ003 1 mg/kg s.c.)
CC(C)C[C@H](NC(=O)[C@@H](NC(=O)[C@H]1CSSC[C@H](NC(=O)[C@H](CO)NC(=O)CN)C(=O)N[C@@H](CO)C(=O)N[C@@H]([C@@H](C)O)C(=O)N2CCC[C@H]2C(=O)N2CCC[C@H]2C(=O)N[C@@H](CO)C(=O)N1)C(C)C)C(=O)N[C@@H](Cc1ccc(O)cc1)C(=O)N[C@@H](CO)C(=O)O [AJ003, GSCSTPPS-(D-Cys)-VLYS (disulfide bond between positions 3 and 9)] (H-GSCSTPPS[dC]VLYS-OH; disulfide 3-9)	no significant analgesic effect	significant analgesic activity	no significant effect	significant analgesic activity	significant analgesic activity	did not show significant differences	significant analgesic activity	no significant difference	significant analgesic activity	no significant difference	significant analgesic activity	did not show significant differences	223						
CCCC[C@H](NC(=O)[C@@H](NC(=O)[C@H]1CSSC[C@H](NC(=O)[C@H](CO)NC(=O)CN)C(=O)N[C@@H](CO)C(=O)N[C@H]([C@H](C)O)C(=O)N2C[C@H](O)C[C@H]2C(=O)N2C[C@H](O)C[C@H]2C(=O)N[C@@H](CO)C(=O)N1)C(C)C)C(=O)N[C@@H](Cc1c[nH]c2ccccc12)C(=O)N[C@@H](CCCN)C(N)=O [AJ003-40, GSCS-(D-Thr)-Hyp-Hyp-S-(D-Cys)-V-Nle-W-Orn-NH2 (3,9 disulfide bond)] (H-GSCS[dT][Hyp][Hyp]S[dC]V[Nle]W[Orn]-NH2; disulfide 3-9)													46.5	top three analgesic candidates	prolonged analgesic activity lasting up to 7 h	comparable in analgesic efficacy to pregabalin	slightly superior to the positive control pregabalin	remained significant	comparable to that of AJ003 at 1 mg/kg
